According to PubChem BioAssay (NCI):
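Protocol summary: plate cells (96-well), add compound at 5 concentrations, incubate 48 h, interpolate endpoints linearly. The concentration for 50% growth inhibition is given as GI50. TGI marks complete inhibition of growth.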

How the values were obtained:
Assay in all cases: DTP human tumour cell line panel, 48 h
A498 renal = system: A498 renal
CCRF-CEM leukemia = system: CCRF-CEM leukemia
HCC-2998 colon = system: HCC-2998 colon
HS 578T breast = system: HS 578T breast
IGROV1 ovarian = system: IGROV1 ovarian
MDA-MB-231 breast = system: MDA-MB-231 breast
SK-MEL-5 melanoma = system: SK-MEL-5 melanoma
SK-OV-3 ovarian = system: SK-OV-3 ovarian
MDA-MB-435 = system: MDA-MB-435
SNB-19 CNS = system: SNB-19 CNS

SMILES	GI50 (A498 renal) [nM]	TGI (A498 renal) [µM]	GI50 (CCRF-CEM leukemia) [nM]	TGI (CCRF-CEM leukemia) [µM]	GI50 (HCC-2998 colon) [nM]	TGI (HCC-2998 colon) [µM]	GI50 (HS 578T breast) [µM]	TGI (HS 578T breast) [µM]	GI50 (IGROV1 ovarian) [nM]	TGI (IGROV1 ovarian) [µM]	GI50 (MDA-MB-231 breast) [nM]	TGI (MDA-MB-231 breast) [µM]	GI50 (SK-MEL-5 melanoma) [nM]	TGI (SK-MEL-5 melanoma) [µM]	GI50 (SK-OV-3 ovarian) [nM]	TGI (SK-OV-3 ovarian) [µM]	GI50 (MDA-MB-435) [nM]	TGI (MDA-MB-435) [µM]	GI50 (SNB-19 CNS) [nM]	TGI (SNB-19 CNS) [µM]
COc1ccc(/C=C\c2cc(OC)c(OC)c(OC)c2)cc1OCC(=O)Nc1nc2ccccc2s1	346	> 83.4	134	> 100	447	> 100	26	> 100	221	> 81.4	179	> 100	40.5	0.263	374	> 100				
COc1ccc(-c2nnc(SCC(=O)Nc3ccc(C(=O)/C=C/c4cc(OC)c(OC)c(OC)c4)cc3)n2-c2ccccc2)cc1OC	5000	> 10	2840	> 10	3080	> 10			7720	> 10	4840	> 10	7790	> 10	6060	> 10	1770	9.91	> 10000	> 10
CCOc1ccc(NCC2CC/C(=C\c3ccc(Cl)cc3)C2=O)cc1 (configuration not stated)		> 95.9		22.8		18				> 50.6				> 59.2		> 100				> 100
O=C1c2cccc3c(Cl)ccc(c23)C(=O)N1CCCN1CCN(CCCN2C(=O)c3cccc4c(Cl)ccc(c34)C2=O)CC1		> 100		> 100		> 100				> 100				> 100		> 100				> 100
CCC(C)c1cccc(C)c1NC(=O)C(=O)Cc1nc2ccccc2s1 (configuration not stated)		> 100		> 100		> 100				> 100				> 100		> 100				> 100
O=C1CCCC(O)=C1SC1=C(O)CCCC1=O		> 100		> 100		> 100				> 100				> 100		> 100				> 100
O=C1CCNC(=O)NC1		> 100		> 100						> 100				> 100		> 100				> 100
COc1cnc2c(c1)C(=O)c1c-2n(CCCNCCN2CCOCC2)c(=O)c2cc([N+](=O)[O-])ccc12			45.3	3.2	303	1.54	3.85	26.9	422	6.76	630	2.65	263	1.26	142	1.62	420	15.4	110	5.2
Cc1cc(NCc2cc(Nc3ccnc4cc(Cl)ccc34)ccc2F)nc(N2CCSCC2)n1	2180	10.4	473	> 100	1960	4.04	1.77	4.98	1830	4.42	1640	3.63	1530	2.94	1820	3.64			4230	60.7
NC(CCc1ncc(-c2ccccc2)s1)C(=O)O (configuration not stated)		> 100		> 100		> 100				> 100				> 100		> 100				> 100
CN(C)c1ccc(Nc2c3ccccc3nc3cc(NC(=O)CCN4CCCC4)ccc23)cc1	442	1.98	77.8	1.38	627	2.26			291	1.83	1230	2.92	1040	2.32	413	1.78	1220	2.49	305	1.64
CNc1ccc([N+](=O)[O-])c2c(NCCCN(C)C)ccnc12				> 100		> 100				> 100						> 100				> 100
CN(C(=O)C12C3C4C1C1C2C3C41C(O)C(C)(C)C)C(C)(C)C (configuration not stated)		> 100		> 100		> 100				> 100				> 100		> 100				> 100
CC(O)C(NC(=O)c1ccccc1)C(=O)N(Cc1ccccc1)Cc1ccccc1 (configuration not stated)		> 100		> 100		> 100				> 100				> 100		> 100				> 100
O=C1CCSC(=S)N1c1ccc(Br)c(Cl)c1		48.4		> 100				> 100		49.5		70		35.9		91.5		65.7		57.6
